47 compounds from ChEMBL document CHEMBL3045843, “Binding of Nicotinoids and the Related Compounds to the Insect Nicotinic Acetyicholine Receptor” (J Pestic Sci, 1992) can be followed below.

Series [1] in a line: Displacement of [3H]alpha-bungarotoxin from nAChR in honeybee head membrane after 60 min by scintillation counting. The format is cell membranes, Apis mellifera.
Series [2] deals with T1, Nicotinic acetylcholine receptor alpha 5 subunit (Musca domestica, UniProt A9XFY4).
T1 sequence (A9XFY4 whole entry): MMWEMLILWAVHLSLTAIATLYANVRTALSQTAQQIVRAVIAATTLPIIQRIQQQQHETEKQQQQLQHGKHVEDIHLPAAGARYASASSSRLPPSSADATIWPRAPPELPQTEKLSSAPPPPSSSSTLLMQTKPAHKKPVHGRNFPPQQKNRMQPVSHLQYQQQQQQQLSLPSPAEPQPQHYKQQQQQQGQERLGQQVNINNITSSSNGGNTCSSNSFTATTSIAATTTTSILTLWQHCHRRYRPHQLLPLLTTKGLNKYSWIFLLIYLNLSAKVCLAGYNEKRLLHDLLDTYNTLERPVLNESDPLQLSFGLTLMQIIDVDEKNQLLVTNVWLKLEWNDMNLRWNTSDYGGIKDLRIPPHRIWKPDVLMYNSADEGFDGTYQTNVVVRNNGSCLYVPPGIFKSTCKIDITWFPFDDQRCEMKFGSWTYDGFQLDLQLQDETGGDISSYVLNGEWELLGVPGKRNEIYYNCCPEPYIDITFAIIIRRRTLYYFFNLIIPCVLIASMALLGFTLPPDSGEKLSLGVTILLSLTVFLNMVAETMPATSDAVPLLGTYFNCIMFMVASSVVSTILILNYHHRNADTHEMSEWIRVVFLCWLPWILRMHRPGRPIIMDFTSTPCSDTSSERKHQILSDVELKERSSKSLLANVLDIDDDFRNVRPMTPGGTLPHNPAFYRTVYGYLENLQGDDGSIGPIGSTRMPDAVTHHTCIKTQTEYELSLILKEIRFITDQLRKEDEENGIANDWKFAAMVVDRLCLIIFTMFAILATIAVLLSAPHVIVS
Kind of series: Displacement of [3H]alpha-bungarotoxin from nAChR in Musca domestica (house fly) head membrane after 60 min by scintillation counting.

The test system of series [3] is Musca domestica. Kind of series: Insecticidal activity against Musca domestica (house fly) assessed as mortality relative to nicotine. The format is functional.
For series [4], the target named is Acetylcholinesterase (Musca domestica, UniProt Q7YWJ9). In words: Inhibition of Musca domestica (house fly) acetylcholinesterase.
A short description of series [5]: Disocciation constant, pKa of the compound at 37 degC. The format is physicochemical.
A short description of series [6]: Disocciation constant, pKa of the compound at 25 degC. The format is physicochemical.

Acetylcholinesterase, sequence (Q7YWJ9 whole entry): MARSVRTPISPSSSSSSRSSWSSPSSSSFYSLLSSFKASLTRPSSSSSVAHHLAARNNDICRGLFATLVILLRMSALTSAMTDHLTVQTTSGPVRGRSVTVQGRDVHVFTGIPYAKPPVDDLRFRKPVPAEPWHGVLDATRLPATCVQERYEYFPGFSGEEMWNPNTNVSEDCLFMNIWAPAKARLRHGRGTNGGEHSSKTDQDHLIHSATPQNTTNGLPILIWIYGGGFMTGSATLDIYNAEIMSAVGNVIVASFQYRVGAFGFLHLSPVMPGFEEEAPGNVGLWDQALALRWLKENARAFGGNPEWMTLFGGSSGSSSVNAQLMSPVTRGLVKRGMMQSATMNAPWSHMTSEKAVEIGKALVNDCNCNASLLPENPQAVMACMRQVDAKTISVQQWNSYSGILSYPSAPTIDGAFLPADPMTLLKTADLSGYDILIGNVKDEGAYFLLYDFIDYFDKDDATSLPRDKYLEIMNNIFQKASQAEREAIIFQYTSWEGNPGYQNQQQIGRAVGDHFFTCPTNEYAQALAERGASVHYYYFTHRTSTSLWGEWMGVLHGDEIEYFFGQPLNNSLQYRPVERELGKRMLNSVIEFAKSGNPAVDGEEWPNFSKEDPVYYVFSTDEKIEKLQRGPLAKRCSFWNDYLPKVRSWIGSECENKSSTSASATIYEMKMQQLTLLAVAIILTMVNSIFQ

On to `CN(C)Cc1ccncc1`, for which the Ki in series [1] and in series [2] was greater than 1000 µM throughout.
Consider `CCN(CC)Cc1ccccn1`, for which the “fold change (FC)” value in series [3] is 0.1. In series [4], it took 3000 µM to reach half-maximal inhibition (IC50). In series [5], this compound had a pKa of 8.42.
For `CCN(CC)Cc1ccncc1`, in that order: 0.1, 7700 µM and 7.96.
For `CN(C)Cc1ccccn1`, the Ki in series [1] and in series [2] was greater than 1000 µM throughout.
On to `CCNCc1cccnc1`, for which the Ki in series [1] amounted to 289 µM; in series [2] it was 380 µM. Besides, the “fold change (FC)” value in series [3] turned out to be 0.34. Besides, the IC50 in series [4] is 7100 µM. Also, the pKa in series [5] was 8.96.
Turning to `CCCNCc1cccnc1`, the Ki in series [1] and in series [2] was greater than 1000 µM each time. In addition, the “fold change (FC)” value in series [3] amounted to 0.15. In addition, in series [4], the IC50 amounted to 17000 µM. Also, the pKa in series [5] was 8.38.
As to `CC(C)NCc1cccnc1`, the Ki in series [1] is 103 µM; in series [2], 226 µM. Besides, in series [3], the “fold change (FC)” value is 0.46. Further, the IC50 in series [4] was 3900 µM. Besides, in series [5], the pKa was found to be 8.46.
Take `CCCCNCc1cccnc1`: the Ki in series [1] was 406 µM; in series [2] it was greater than 1000 µM. The “fold change (FC)” value in series [3] turned out to be 0.16. The same compound gave an IC50 in series [4] of 23000 µM. The compound further displayed a pKa in series [5] of 8.66.
The matching figures for `CCN(CC)Cc1cccnc1`: 155 µM, 450 µM, 0.46, 890 µM and 8.12.
The matching figures for `CCCN(CCC)Cc1cccnc1`: 200 µM, 220 µM, 0.16, 1700 µM and 8.13.
`CCCCN(CCCC)Cc1cccnc1`: the Ki in series [1] was 175 µM; in series [2], greater than 1000 µM. In addition, in series [3], the “fold change (FC)” value is recorded as 0.28. In series [4], this compound returned an IC50 of 2800 µM. The same compound returned a pKa in series [5] of 8.08.
The matching figures for `c1cncc(CN2CCCCC2)c1`: 48.7 µM, 67.6 µM, 0.79, 1500 µM and 8.16.
In the case of `c1cncc(CN2CCOCC2)c1`, the Ki in series [1] and in series [2] was greater than 1000 µM throughout. For the same compound, the “fold change (FC)” value in series [3] was 0.04. The compound also showed a pKa in series [5] of 5.76.
As for `CCOc1ccccc1Cn1nc(OC)oc1=O`, the Ki in series [1] and in series [2] was greater than 100 µM throughout.
As for `COc1nn(-c2ccc(C)cc2OC)c(=O)o1`, the Ki in series [1] and in series [2] was greater than 1000 µM each time.
Consider `N#C/N=C1/NCCN1/C=N/c1ccccc1`, for which the Ki in series [1] and in series [2] was greater than 500 µM throughout.
As for `O=[N+]([O-])C(/C=N/c1ccccc1)=C1NCCN1`, the Ki in series [1] and in series [2] was greater than 500 µM throughout.
For `CN(C)Cc1cccnc1`, the results for the Ki in series [1] and in series [2] were 208 µM and 201 µM, respectively. Further, the “fold change (FC)” value in series [3] is given as 0.45. Moreover, half-maximal inhibition in series [4] (IC50) required 5100 µM. The pKa in series [5] came to 7.76.
For `CNCc1cccnc1`, in that order: 377 µM, 600 µM, 0.3, 31000 µM and 8.3.
As to `c1cncc(C2CCCCN2)c1` (racemic) [DL-ANABASINE], the “fold change (FC)” value in series [3] is reported as 0.6.
Turning to `CN1CCC[C@H]1c1cccnc1` (racemic) [NICOTINE], the “fold change (FC)” value in series [3] was determined as 1. The compound also came in with an IC50 in series [4] of 620 µM.
Consider `c1cncc([C@@H]2CCCN2)c1` (racemic) [NORNICOTINE], for which the Ki turned out to be 7.61 µM in series [1] and 8.77 µM in series [2]. Also, in series [3], the “fold change (FC)” value turned out to be 0.3. Further, in series [4], the IC50 stood at 9700 µM.
As for `O=[N+]([O-])C=C1NCCN1` [2-(NITROMETHYLENE)IMIDAZOLIDINE], the Ki in series [1] and in series [2] was greater than 1000 µM throughout.
As for `c1cncc([C@@H]2CCCCN2)c1` [ANABASINE], the pKa came to 8.7 in series [6] and 8.48 in series [5].
`COC(=O)C1=CCCN(C)C1` [ARECOLINE]: the values for the Ki in series [1] and in series [2] were 240 µM and 516 µM, respectively.
Take `CN1[C@@H]2CC[C@H]1C[C@@H](OC(=O)C(CO)c1ccccc1)C2` (stereo partly drawn) [ATROPINE]: the values for the Ki in series [1] and in series [2] were 26.3 µM and 32.5 µM, respectively.
Consider `C[N+](C)(C)CCOC(N)=O` [CARBACHOL], for which the values for the Ki in series [1] and in series [2] were 175 µM and 212 µM, respectively.
The matching figures for `CCC[C@H]1CCCCN1` [CONIINE]: 262 µM and greater than 1000 µM.
In the case of `CN1C(=O)CC[C@H]1c1cccnc1` [COTININE], the Ki in series [1] and in series [2] was greater than 1000 µM in each case. Also, the “fold change (FC)” value in series [3] is given as 0.03. In addition, the pKa in series [6] is 4.5.
`O=c1cccc2n1C[C@@H]1CNC[C@H]2C1` [CYTISINICLINE]: the Ki came to 0.65 µM in series [1] and 1.23 µM in series [2].
The matching figures for `C[N+](C)(C)CCCCCCCCCC[N+](C)(C)C` [DECAMETHONIUM]: 224 µM and 103 µM.
For `C1=C(c2cccnc2)NCC1` [DIHYDRONICOTYRINE], the Ki in series [1] was 1.27 µM; in series [2], 1.92 µM. In addition, in series [3], the “fold change (FC)” value amounted to 2.6. Further, the pKa in series [6] amounted to 7.4; in series [5], 7.21. Further, the IC50 in series [4] was determined as 350 µM.
As for `C[N+]1(C)CCN(c2ccccc2)CC1` [DIMETHYLPHENYLPIPERAZINIUM], the values for the Ki in series [1] and in series [2] were 49.5 µM and 86.3 µM, respectively.
As to `c1cncc(C2CCCCN2)c1` (stereo not drawn) [DL-ANABASINE], the Ki came out at 3.91 µM in series [1] and 3.71 µM in series [2]. In series [4], this compound showed an IC50 of 3900 µM.
For `O=[N+]([O-])/N=C1\NCCN1Cc1ccc(Cl)nc1` [IMIDACLOPRID], the Ki in series [1] came out at 2.53 µM; in series [2], 7.47 µM.
As to `CN1[C@@H](CC(=O)c2ccccc2)CCC[C@H]1C[C@H](O)c1ccccc1` [LOBELINE], the Ki in series [1] worked out at 9.13 µM; in series [2] it was 12.8 µM.
Turning to `CNC1(C)C2CCC(C2)C1(C)C` (stereo not drawn) [MECAMYLAMINE], the Ki in series [1] was 453 µM; in series [2], greater than 1000 µM.
Take `c1cncc(C2=NCCC2)c1` [MYOSMINE]: the inhibitory constant (Ki) in series [1] and in series [2] was greater than 1000 µM in each case. Moreover, the “fold change (FC)” value in series [3] is 0.36. For the same compound, the values for the pKa in series [6] and in series [5] were 5.5 and 5.23, respectively. In series [4], this compound returned an IC50 of 6800 µM.
Turning to `c1cncc(CN2CCCC2)c1` [N-(3-PYRIDYLMETHYL)PYRROLIDINE], the Ki came out at 14.3 µM in series [1] and 16.4 µM in series [2]. Also, the “fold change (FC)” value in series [3] was determined as 0.43. Further, it took 1400 µM to reach half-maximal inhibition in series [4] (IC50). The compound also returned a pKa in series [5] of 8.11.
`CN(C)C1CSSC1` [NEREISTOXIN]: the Ki was 254 µM in series [1] and 187 µM in series [2].
Regarding `CN1CCC[C@H]1c1cccnc1` [NICOTINE], the Ki in series [1] stood at 1.48 µM; in series [2], 2.48 µM. For the same compound, the results for the pKa in series [6] and in series [5] were 7.9 and 7.66, respectively. Also, the IC50 in series [4] turned out to be 2600 µM.
Consider `Cn1cccc1-c1cccnc1` [NICOTYRINE], for which the Ki in series [1] and in series [2] was greater than 1000 µM throughout. Besides, in series [3], the “fold change (FC)” value is recorded as 0.18. Also, the pKa worked out at 4.7 in series [6] and 4.5 in series [5]. Further, in series [4], inhibition was half-maximal at 2300 µM (IC50).
For the compound `c1cncc([C@@H]2CCCN2)c1` [NORNICOTINE], the figures for the pKa in series [6] and in series [5] were 9 and 8.76, respectively. This compound also had an IC50 in series [4] of 4200 µM.
On to `C[N+]1(CCCCC[N+]2(C)CCCC2)CCCC1` [PENTOLINIUM], for which the results for the Ki in series [1] and in series [2] were 72.2 µM and 108 µM, respectively.
`CN1CCC[C@@H]1c1cccnc1` [R-NICOTINE]: the results for the Ki in series [1] and in series [2] were 43.7 µM and 59.9 µM, respectively. Further, the “fold change (FC)” value in series [3] is recorded as 1. Further, half-maximal inhibition in series [4] (IC50) required 230 µM.
As to `O=C1N(Cc2ccccc2)C2C[S+]3CCCC3C2N1Cc1ccccc1` (stereo not drawn) [TRIMETHAPHAN], the Ki is 5.79 µM in series [1] and 2.75 µM in series [2].
For `COc1cc2c3cc1Oc1cc(ccc1O)C[C@@H]1c4c(cc(OC)c(O)c4Oc4ccc(cc4)C[C@@H]3N(C)CC2)CC[N+]1(C)C` [TUBOCURARINE], in that order: 3.57 µM and 1.88 µM.
